From US20080063628A1, “METHODS TO PROMOTE CELL DIFFERENTIATION” (priority 2006, published 2008)

Test system: late passage (P14) pancreatic-derived stromal cell line
Test: Two sequential low dose trichostatin A treatments, gene expression by RT-PCR (Example 7)
Format: cell-based, human
Conditions: for HNF (HNF-3 beta) gene expression / Insulin gene expression / Pdx-1 gene expression / glucagon gene expression: 1.25 μM 0-24 h + 96-120 h
Experimental: Several cell lines obtained from different amniotic fluid specimens (see Example 14) and pancreas donors (see Example 13) were tested with similar results. Two lines at similar passage number but derived from different amniotic fluid specimens are shown in Table VII-A and Table VII-B for this example. One of these cell lines was also used in examples 2 and 4 above. In addition, this example also contains comparison data in Table VII-C and Table VII-D for a single pancreatic-derived stromal line grown to early and late passage number.
Amniotic fluid derived cells or pancreatic-derived stromal cells were seeded into 24-well tissue culture plates at a density of 5000/cm^2 and cultured in AMNIOMAX (Invitrogen) or DMEM with 10% FBS respectively under standard cell culture conditions until confluent. After the cells reached confluency, amniotic fluid derived cells were treated at time 0 hours with a dose of 500 nM trichostatin A, and pancreatic-derived stromal cells were treated with a dose of 1.25 μM trichostatin A solubilized in DMSO and medium. At time 24 hours, cell cultures underwent a complete medium change to remove all traces of trichostatin A. At time 96 hours, cell cultures were re-fed with fresh medium and received a second dose of trichostatin A at the same concentration as used previously. At time 120 hours, cell cultures again underwent a complete medium change and were cultured for an additional 24 hours or […] total incubation time.
Samples were taken daily for RT-PCR at the times indicated in Table VII-A to D. The culture medium was removed, and samples were rinsed in PBS then collected in RLT with β-mercaptoethanol (Qiagen). RNA was purified using the RNeasy Mini Kit (Qiagen) and RNA quantity and quality were determined using a spectrophotometer. cDNA was made using the iScript cDNA synthesis kit (BioRad).
Samples of 20 ng cDNA were used in each reaction to determine the expression levels of the following genes in amniotic fluid-derived cells: Gata1, HNF-3 beta, Pdx-1, insulin, and Sox17. Similarly, samples of 20 ng cDNA were used in each reaction to determine the expression level of the following genes in pancreatic-derived cells: glucagon, HNF-3 beta, insulin and Pdx-1. Real-Time PCR was performed on the Applied Biosystems 7500, and data was analyzed using the accompanying software according to the methods described in Example 15.
Real-time PCR amplifcation and quantitative analysis. Unless otherwise stated, all reagents were purchased from Applied Biosystems. Real-time PCR reactions were performed using the ABI PRISM™ 7500 Sequence Detection System. TAQMAN™ FAST UNIVERSAL PCR MASTER MIX™ (ABI, CA) was used with 20 ng of reverse transcribed RNA in a total reaction volume of 20 μl. Each cDNA sample was run in duplicate to allow correction of pipetting errors. Primers and FAM-labeled TAQMAN™ probes were used at concentrations of 200 nM. The level of expression for each target gene was normalized using the pre-developed Applied Biosystem's human glyceraldehyde-3-phosphate dehydrogenase (GAPDH) endogenous control kit. Primers and probes were designed using either ABI PRISM PRIMER EXPRESS™ software or a pre-developed ABI gene analysis kit. For each gene, either one of the primers or the probe were designed to be exon-boundary spanning. This eliminated the possibility of the primers/probe binding to any genomic DNA present. The primer and probe sets are listed as follows: Pdx-1 (Hs00426216), Insulin (Hs00355773), glucagon (Hs00174967), and FoxA2 (HNF 3-beta) (Hs00232764). The remaining primers were designed using the PRIMERS program (ABI, CA). After an initial 95° C. incubation for 20 sec, samples were cycled 40 times in two stages: a denaturation step at 95° C. for 3 sec, followed by an annealing/extension step at 60° C. for 30 sec. […]

[1] = 1.25 μM, after the second treatment cycle
[2] = 1.25 μM, following first treatment

For CC(/C=C/C(=O)NO)=C\[C@@H](C)C(=O)c1ccc(N(C)C)cc1 [trichostatin A], the “HNF (HNF-3 beta) gene expression” value (24 hrs) was “+ (detectable between 35 and 40 cycles by RT-PCR)”, the Insulin gene expression (24 hrs) was “nd (not detectable at >40 cycles by RT-PCR)” and the Pdx-1 gene expression (24 hrs) was “+++ (detectable at less than 35 cycles by RT-PCR with SE less than 0.9)”. For the same compound, the glucagon gene expression (24 hrs) was “+++ (detectable at less than 35 cycles by RT-PCR with SE less than 0.9)”, the “HNF (HNF-3 beta) gene expression” value (48 hrs) was “nd (not detectable at >40 cycles by RT-PCR)” and the Pdx-1 gene expression (48 hrs) was “nd (not detectable at >40 cycles by RT-PCR)”. The glucagon gene expression (48 hrs) was “+++ (detectable at less than 35 cycles by RT-PCR with SE less than 0.9)”, the “HNF (HNF-3 beta) gene expression” value (72 hrs) was “nd (not detectable at >40 cycles by RT-PCR)” and the Insulin gene expression (72 hrs) was “nd (not detectable at >40 cycles by RT-PCR)”. The Pdx-1 gene expression (72 hrs) was “nd (not detectable at >40 cycles by RT-PCR)”, the glucagon gene expression (72 hrs) was “+ (detectable between 35 and 40 cycles by RT-PCR)” and the “HNF (HNF-3 beta) gene expression” value (96 hrs) was “nd (not detectable at >40 cycles by RT-PCR)”. The Insulin gene expression (96 hrs) was “nd (not detectable at >40 cycles by RT-PCR)”, the Pdx-1 gene expression (96 hrs) was “nd (not detectable at >40 cycles by RT-PCR)” and the glucagon gene expression (96 hrs) was “nd (not detectable at >40 cycles by RT-PCR)”. For the same compound, the “HNF (HNF-3 beta) gene expression” value (120 hrs) was “+++ (detectable at less than 35 cycles by RT-PCR with SE less than 0.9)”, the Insulin gene expression (120 hrs) was “nd (not detectable at >40 cycles by RT-PCR)” and the Pdx-1 gene expression (120 hrs) was “++ (detectable at less than 35 cycles by RT-PCR with SE greater than 0.9)”. The “HNF (HNF-3 beta) gene expression” value (144 hrs) was “nd (not detectable at >40 cycles by RT-PCR)”, the Insulin gene expression (144 hrs) was “nd (not detectable at >40 cycles by RT-PCR)” and the Pdx-1 gene expression (144 hrs) was “nd (not detectable at >40 cycles by RT-PCR)”. The glucagon gene expression (144 hrs) was “+ (detectable between 35 and 40 cycles by RT-PCR)”, the “HNF-3 beta RT-PCR detection cycle” value [1] was 34 cycles and the “Pdx-1 RT-PCR detection cycle” value [1] was 34 cycles. The “glucagon RT-PCR detection cycle” value [1] was 36 cycles, the “HNF-3β RT-PCR detection cycle” value [2] was 33 cycles and the “Pdx-1 RT-PCR detection cycle” value [2] was 33 cycles. For the same compound, the “glucagon RT-PCR detection cycle” value [2] was 33 cycles.
